How the values were obtained:
[1] = target: T1, human RTCB-Archease complex (Homo sapiens, UniProt Q8IWT0+Q9Y3I0); assay: X-ray crystal structure, […] Å; assay type: binding; details: Mn2+ (sites A, B, C); RTCB active site, gamma-phosphate coordinated by Archease-bound Mn2+; non-hydrolyzable GTP analog; 291 K
T1 construct: full-length RTCB from Sf21 insect cells (His6 tag, TEV-cleaved optionally) with Archease isoform 1 from E. coli (N-terminal His6, thrombin site, tag removal optional); 1:1 complex
T1 sequence (Q9Y3I0 1-505): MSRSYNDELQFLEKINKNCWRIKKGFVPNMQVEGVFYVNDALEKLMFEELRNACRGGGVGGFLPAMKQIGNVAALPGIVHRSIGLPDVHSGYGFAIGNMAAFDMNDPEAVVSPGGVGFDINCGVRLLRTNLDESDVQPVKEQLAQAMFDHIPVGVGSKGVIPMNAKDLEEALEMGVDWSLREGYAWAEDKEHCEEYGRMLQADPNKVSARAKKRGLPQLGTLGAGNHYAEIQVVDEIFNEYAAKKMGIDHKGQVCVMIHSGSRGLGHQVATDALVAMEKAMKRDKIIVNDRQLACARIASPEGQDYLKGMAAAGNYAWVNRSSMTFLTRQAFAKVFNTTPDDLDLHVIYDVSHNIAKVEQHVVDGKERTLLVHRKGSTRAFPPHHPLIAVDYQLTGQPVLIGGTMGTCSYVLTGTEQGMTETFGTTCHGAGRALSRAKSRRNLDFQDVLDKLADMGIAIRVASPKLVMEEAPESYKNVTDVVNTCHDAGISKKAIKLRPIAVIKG
T1 sequence (Q8IWT0 1-167): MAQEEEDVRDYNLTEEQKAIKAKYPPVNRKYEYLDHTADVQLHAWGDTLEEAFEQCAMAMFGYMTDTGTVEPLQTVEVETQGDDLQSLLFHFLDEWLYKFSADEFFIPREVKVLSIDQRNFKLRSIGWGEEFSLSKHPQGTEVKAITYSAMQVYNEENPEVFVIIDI

[2] = target: T1, human RTCB-Archease complex; assay: X-ray crystal structure, […] Å; assay type: binding; details: covalent; phosphoramidate with RTCB H428, formed from GTP in co-crystallization; Mn2+ (sites A, C); 291 K
[3] = target: T1, human RTCB-Archease complex; assay: radioactive guanylylation assay, gel autoradiography; assay type: biochemical; details: covalent; labelled compound (alpha-32P-GTP 80 nM); RTCB 1 µM, Archease 1 µM, 0.5 mM MnCl2, pH 7.5, 30 °C
[4] = target: human RTCB (human) (UniProt Q9Y3I0)

## Nc1nc2c(ncn2[C@@H]2O[C@H](COP(=O)(O)CP(=O)(O)OP(=O)(O)O)[C@@H](O)[C@H]2O)c(=O)[nH]1 [GMPCPP, guanosine-5’-[(α,β)-methyleno]triphosphate]
[1]
  X-ray crystal structure, 2.3 Å: RTCB-Archease complex with a well-resolved GMPCPP molecule in the active site of RTCB

## Nc1nc2c(ncn2[C@@H]2O[C@H](COP(=O)(O)O)[C@@H](O)[C@H]2O)c(=O)[nH]1 [GMP]
[2]
  X-ray crystal structure, 2.2 Å: GTP reacted with the active site histidine H428 to form the guanylylated RTCB-H428-GMP intermediate

## Nc1nc2c(ncn2[C@@H]2O[C@H](COP(=O)(O)OP(=O)(O)OP(=O)(O)O)[C@@H](O)[C@H]2O)c(=O)[nH]1 [GTP]
[3]
  radioactive guanylylation assay, gel autoradiography: We detected the formation of guanylylated RTCB only in the presence of Archease

## human Archease (isoform 1) (from UniProt Q8IWT0 1-167) (natural protein)
[4]
  apparent rate constant of XBP1 intron circularization by RTCB (250 nM) with 1 uM Archease, GTP and Mn2+; no ligated product without Archease: 0.015 min⁻¹
